From patent EP4458977A1, “SELF-ASSEMBLING PEPTIDE AMPHIPHILES AS RETROVIRAL TRANSDUCTION ENHANCERS” (Max-Planck-Gesellschaft zur Förderung der Wissenschaften …, priority 2023, dated 2024)
Entries after “also recorded” stand apart in the source; their conditions may differ. Where a SMILES comes first, the peptide text is derived from it. Where no end group is shown, it is not given here. The star is where a group is joined. Palmitoyl = CCCCCCCCCCCCCCCC(=O)*

Legend:
[1] = ATR-FT-IR determination of β-sheet content; assay type: physicochemical; conditions: 1 mg/mL in PBS lyophilized; integral at 1630 cm^-1 relative to 1650-1700 cm^-1
Procedure: ATR-FT-IR: ATR-IR spectra acquisition and the calculation of β-sheet content were conducted according prior art procedures. Briefly, FT-IR spectra of solid samples were recorded after lyophilization of fibril solutions using a Bruker Tensor II spectrometer equipped with a diamond crystal as ATR element with a spectral resolution of 2 cm^-1, each spectrum was an average of 64 scans. The data was processed with Origin software. β-sheet amount was determined by calculating the integral of the peak at 1630 cm-1 (β-sheet) relative to the integral between 1650-1700 cm-1 (native structure) from the 2nd derivative of the FT-IR spectra.

HeLa cells = assay: Confocal laser scanning microscopy and degradation study with PA library and HeLa cells; assay type: cell-based; conditions: for association with cellular membranes: 2 µg added to 20.000 HeLa cells, 30 min; for degradability (in words) / Degradability / % (rel. to initial particles > 10 µm^2): HeLa cells; for degradability (in words): 3 days; for Degradability / % (rel. to initial particles > 10 µm^2): 3 d relative to 30 min
Procedure: In general, the procedure for determine whether a PA is degraded or not, is conducted by confocal laser scanning microscopy of Proteostat stained PAs which are added to Hela cells (2 µg peptide added to 20.000 cells). Microscopy is conducted at day 0 (d0, after 30 min of incubation) and at day 3 (d3, after 72 h of incubation). The number of aggregates >10 µm^2 is counted via 3D object counter in imaged in an area of 1008 µm × 1008 µm.
A PA is considered to be degradable if the number and the size of aggregates are reduced after 3 days. The efficiency is determined by the percentual degradation (aggregate number at d3 / aggregate number at d0). For the number of aggregation three technical replicates were evaluated for each sample. A large deviation represents a nonhomogeneous spatial distribution of aggregates.
Confocal laser scanning microscopy and degradation study with PA library and HeLa cells: Confocal laser scanning microscopy studies were performed for the visualization of the cell-PA interaction. HeLa cells were seeded one day prior to conducting the assay (20,000/well) in an 8-well IBIDI slide. […] The nucleus of the HeLa cells was stained with Hoechst 33342 (NucBlue™, Thermo Fisher Scientific). The peptide solution mixture was transferred to the HeLa cells and incubated for 30 min at 37°C before washing three times with PBS. […] For the evaluation of aggregate degradation, the samples were further incubated at 37°C for 3 d and analyzed without any additional washing step. […] The number of aggregates were determined by counting aggregates larger than the threshold 10 µm^2 in an area of 1008 × 1008 µm and repeated in three technical triplicates.

[2] = TEM of peptide assemblies (fibril formation / assembly); assay type: physicochemical; conditions: for TEM morphology (in words): 1 mg/mL in PBS; for Assembly without hydrophob residue: corresponding peptide without hydrophobic moiety; for Assembly: peptide amphiphile
Procedure: The peptides were predissolved in DMSO to a concentration of 10 mg/mL. The fibril formation was induced by further diluting the solution to a final incubation concentration of 650 µM or 1 mg/mL in PBS as indicated in the text and incubated for 1 d (1 day) at rt (room temperature, 20 °C - 25 °C). Other concentrations as described herein were achieved by further dilution of preformed fibrils.
(§1) Transmission electron microscopy (TEM) measurements, Thioflavin (ThT), zeta-potential measurements for fibril characterization were prepared and conducted according to prior art procedures. […] Fibrils were defined as distinct, if no visible structures could be identified in fluorescence and brightfield microscopy.

HIV-1 = conditions: for Infectivity enhancing N fold at 1.3 µM: relative to virus only; for enhancement of HIV-1 infection / transduction (in words): 6.5 µM, 1.3 µM, 0.26 µM;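 on all read-outs here: TZM-bl reporter cells exposed to HIV-1 with peptide fibrils, infection read out as β-galactosidase luminescence, compared with virus alone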
Procedure: HIV-1 Infection Assay with TZM-bl cells: The effect of peptide fibrils on HIV-1 infection was studied via a luminescence assay for β-galactosidase, which was reported by TZM-bl cells upon infection. The HIV-1 infection assay was conducted in three technical replicates and repeated in three independent experiments unless stated otherwise.

[3] = Fluorescence microscopy of ThT-stained fibrils (µm-sized aggregates); assay type: physicochemical; conditions: 1 mg/mL stained with 50 µM ThT
Procedure: as §1
Fluorescence microscopy: 1 µL Fibrils (1 mg mL^-1) were stained with 9 µL, 50 µM ThT. 10 µL of the stained fibrils (0.1 mg mL^-1) were placed on a microscopy glass. Fluorescence microscopy measurements were performed on a Leica DMi8 microscope with 10x air objective and equipped with a Leica MC170 HD camera with a filter setting λem = 527/30 nm upon excitation at λex = 480/40 nm) and processed with the Leica LASX software.

Compound | β-sheet amount [1] [%] | association with cellular membranes (HeLa cells) | degradability (in words) (HeLa cells) | Degradability / % (rel. to initial particles > 10 µm^2) (HeLa cells) [%] | aggregate number increases (HeLa cells; d3 relative to d0) [%] | TEM morphology (in words) [2] | Assembly without hydrophob residue [2] | Assembly [2] | enhances infectivity at 1.3 µM concentration, times more efficient compared to virus only infection (HIV-1) [times] | infectivity enhancement at 1.3 µM concentration compared to virus only infection (in words) (HIV-1) | Infectivity enhancing N fold at 1.3 µM (HIV-1) [N fold] | fluorescent, µm-sized aggregates (ThT staining) [3] | enhancement of HIV-1 infection / transduction (in words) (HIV-1) | aggregate number decreases / degraded in presence of HeLa cells within 3 days (HeLa cells; d3 relative to d0) | TEM morphology (in words) ([2]; listed as NFYLQVNKINK)
CCCCCCCCCCCCCCCC(=O)N[C@@H](CCCCN)C(=O)N[C@@H](Cc1ccc(O)cc1)C(=O)N[C@H](C(=O)N[C@@H](Cc1c[nH]cn1)C(=O)N[C@@H](CCC(N)=O)C(=O)N[C@@H](CC(N)=O)C(=O)N[C@@H](Cc1ccc(O)cc1)C(=O)N[C@H](C(=O)N[C@@H](CCCCN)C(=O)N[C@@H](C)C(=O)N[C@@H](CC(C)C)C(=O)N[C@@H](C)C(=O)NCC(=O)N[C@@H](CCCCN)C(=O)N[C@@H](CC(C)C)C(=O)N[C@H](C(N)=O)C(C)C)[C@@H](C)O)[C@@H](C)CC [Pat26] (Palmitoyl-KYIHQNYTKALAGKLV-NH2) | 51 | association with cellular membranes | cannot be degraded; also recorded: not efficiently degradable; also recorded: non-degradable PA | -110 | 110 | fibrillar morphologies | No | Yes | 5 | does not enhance infectivity | 5±2 | fluorescent, µm-sized aggregates |  |  | 
CCCCCCCCCCCCCCCC(=O)N[C@@H](CC(N)=O)C(=O)N[C@@H](Cc1ccccc1)C(=O)N[C@@H](Cc1ccc(O)cc1)C(=O)N[C@@H](CC(C)C)C(=O)N[C@@H](CCC(N)=O)C(=O)N[C@H](C(=O)N[C@@H](CC(N)=O)C(=O)N[C@@H](CCCCN)C(=O)N[C@H](C(=O)N[C@@H](CC(N)=O)C(=O)N[C@@H](CCCCN)C(N)=O)[C@@H](C)CC)C(C)C [Pat27] (Palmitoyl-NFYLQVNKINK-NH2) | 60 | association with cellular membranes | cannot be degraded; also recorded: not efficiently degradable; also recorded: non-degradable PA | -123 | 123 | fibrillar morphologies | Yes | Yes | 5 |  | 5±1 | fluorescent, µm-sized aggregates |  |  | 
CCCCCCCCCCCCCCCC(=O)NCC(=O)NCC(=O)NCC(=O)N[C@@H](CO)C(=O)N[C@@H](CO)C(=O)N[C@@H](CCCCN)C(=O)N[C@@H](CCCCN)C(=O)N[C@@H](CCCCN)C(N)=O [Pat28] (Palmitoyl-GGGSSKKK-NH2) | 26 | no association with cellular membranes |  |  |  | fibrillar morphologies | No | Yes |  |  | 2±1 | no fluorescent, µm-sized aggregates |  |  | 
CCCCCCCCCCCCCCCC(=O)NCC(=O)N[C@@H](CCCCN)C(=O)N[C@H](C(=O)NCC(=O)N[C@@H](CO)C(=O)N[C@@H](CCCCN)C(N)=O)C(C)C [Pat30, C16-GKVGSK-NH2] (Palmitoyl-GKVGSK-NH2) | 41 | no association with cellular membranes |  |  |  | fibrillar morphologies | No | Yes |  | does not enhance infectivity | 2±1 | less fluorescent, µm-sized aggregates | do not efficiently enhance infectivity |  | 
CCCCCCCCCCCCCCCC(=O)N[C@@H](CCCCN)C(=O)N[C@H](C(=O)N[C@H](C(=O)N[C@@H](CO)C(=O)N[C@@H](Cc1ccccc1)C(=O)N[C@@H](CCCCN)C(N)=O)[C@@H](C)CC)[C@@H](C)CC [Pat32, C16-KIISFK-NH2] (Palmitoyl-KIISFK-NH2) | 46 | association with cellular membranes | cannot be degraded; also recorded: not efficiently degradable; also recorded: non-degradable PA | -84 | 84 | fibrillar morphologies | No | Yes |  | does not enhances infectivity | 2±1 | fluorescent, µm-sized aggregates |  |  | 
C16-disulfide-CVVVAAAKKK-NH2 (not fully specified (residue 1); printed as C16-disulfide-CVVVAAAKKK-NH2) [Pat2] | 57 | no visible association with cellular membranes |  |  |  | fibrillar morphologies | No | Yes | 4 |  | 4±2 | fluorescent, µm-sized aggregates | weak enhancers of HIV-1 infection |  | 
NFYLQVNKINK-NH2 [Pat46] | 49 | association with cellular membranes | not efficiently degradable; also recorded: non-degradable PA |  |  | fibrillar morphologies |  |  |  |  |  | fluorescent, µm-sized aggregates | potent enhancers of HIV-1 infection | stays also similar | unexpectedly forming fibrils by themselves
